Test results as given in patent publication US11644466B2, “Methods for treating, preventing and predicting risk of developing breast cancer” (Dana-Farber Cancer Institute, Inc., priority 2012, dated 2023).
“Also recorded” adds a separate entry of the source.

System: normal human breast tissues (breast epithelial cells)
Experiment: Tissue explant (tissue slice) culture of normal breast tissue with pathway inhibitors, hormones or tamoxifen: frequency of BrdU+, Ki67+ and p27+ cells
Type: cell-based
Settings: for frequency (numbers) of p27+ cells: normal breast tissue explant / tissue slice culture with inhibitor or tamoxifen, 8-10 days, FIG. 24, FIG. 26C; for number of cells incorporating BrdU: BrdU pulse 5 hrs
[1] = normal breast tissue explant culture with inhibitor for 8-10 days, versus control, FIG. 24

Method: The multicolor immunofluorescence for p27 and Ki67 was performed by incubating the samples with monoclonal antibody anti-p27 (1:100 dilution) and polyclonal antibody anti-Ki67 (1:50 dilution) for one hour at room temperature followed by goat anti-mouse IgG1 Alexa 555-conjugated (Invitrogen, 1:100 dilution, for detection of p27) and goat anti-rabbit Alexa 488-conjugated (Invitrogen, 1:100 dilution, for detection of Ki67) for 30 minutes at room temperature. Multicolor immunofluorescence for pSMAD2 (1:50 dilution), pEGFR (1:50 dilution) and Axin2 (1:20 dilution) were performed by incubation for 2 h at room temperature or overnight at 4° C. followed by secondary antibody Rabbit Alexa 488 conjugated (Invitrogen, 1:100 dilution for pSMAD2 and pEGFR) or mouse IgG1 Alexa-488 conjugated (Invitrogen 1:100 dilution) for Axin2 for 30 minutes at room temperature.
Scoring for the expression of each marker was done as follows: p27 fluorescence intensity was scored in the nuclei of 20 randomly selected cells using the ImageJ 1.43r software; Sox17 and COX2 expression was inferred by the combination of two variables: 1) the percentage cells expressing each marker, and 2) the intensity of each marker transformed into a categorical variable based on 0 no expression, 1 weak expression, 2 moderate expression and 3 high expression; the percentage of p27+, Ki67+ and BrdU+ cells was estimated by counting an average of 1000 cells/sample in the case of the mammary epithelium for premenopausal, postmenopausal and high-low density cases, and an average of 2,000 cells in the case of the tissue slices cultures. % of pSMAD2+ cells was estimated by counting an average of 600 cells/sample. For pEGFR and Axin2 fluorescence intensity measurement, mean fluorescence intensity was measured using Image J 1.43r software by counting an average of 600 cells/sample corrected by area and subtracting the average of background fluorescence intensity. […] For p27 and AR staining, p27 (1:100 dilution and AR (1:30 dilution) antibodies were incubated overnight at 40 C followed by incubation at RT for 1 h with subsequent staining by goat anti-mouse IgG1 Alexa 555-conjugated (Invitrogen, 1:100 dilution, for detection of p27) and anti-rabbit IgG Alexa 488-conjugated (Invitrogen, 1:80 dilution). Percentage of p27+, AR+, ER+ cells was estimated by counting 500-1000 cells/sample. Nuclear staining with DAPI and multiple fluorescence images from each section were acquired with 40× plan apo objective, following procedure described above.
Normal human breast tissues were collected from reduction mammoplasties, transported in ice-cold DMEM-F12 medium, and processed within 24 hrs. For organ cultures, thin (˜1 mm thick) slices of tissue were cut from epithelium-enriched areas and cultured for 8 days in 6-well plates using co-culture inserts to optimize the tissue/medium contact surface and changing medium (2 ml/well) every 24 hrs. […] Following 8 days of culture, labeled tissue slices were pulse with bromo-deoxy-uridine (30 μM final concentration) for 5 hrs before fixing the tissue in buffered formalin at room temperature for 24 hrs followed by embedding in paraffin. Experiments were performed in triplicates using tissue from different regions of the same breast, uncultured tissue and tissue cultured without any drugs as controls.

Structure (SMILES)	frequency (numbers) of p27+ cells	number of cells incorporating BrdU [1]	fraction of Ki67+ cells [1]	numbers of p27+ cells (tissue slices treated with concentrations of estrogen present in follicular phase (0.5 μM of estradiol for 8 days), FIG. 26B)
COc1cc([C@@H]2c3cc4c(cc3[C@H](O)[C@H]3COC(=O)[C@@H]23)OCO4)cc(OC)c1OC [IGFR, picropodophylotoxin]	most pronouncedly decreased; also recorded: decreased	significantly (p<0.05) decreased	–	–
CC/C(=C(\c1ccccc1)c1ccc(OCCN(C)C)cc1)c1ccccc1 [tamoxifen]	high	–	–	–
COc1cc2ncnc(Nc3cccc(Cl)c3)c2cc1OC [EGFR, tyrphostin AG1478]	–	significantly (p<0.05) decreased	decreased	–
c1ccc(-c2nn3c(c2-c2ccnc4cc(OCCN5CCOCC5)ccc24)CCC3)nc1 [TGFBR inhibitor, LY2109761]	most pronouncedly decreased; also recorded: decreased	opposite effect	–	–
CC1=C2C[C@H]3[C@@H](CC=C4C[C@@H](O)CC[C@@]43C)[C@@H]2CC[C@]12O[C@@H]1C[C@H](C)CN[C@H]1[C@H]2C [Hh, cyclopamine]	–	significantly (p<0.05) decreased	–	–
C[C@]12CC[C@@H]3c4ccc(O)cc4CC[C@H]3[C@@H]1CC[C@@H]2O [estrogen, estradiol]	–	–	–	high
